Columns and labels:
Assay type in all cases: cell-based, human
[1] = test system: IL-6; test: Multiplex analysis, chemotherapy (5-FU), TR146
Method: (§1) Oral buccal mucosal cells (TR146) cells were incubated overnight at 37° C. in 5% CO2 incubator. […] The cells were then stimulated with 5-FU (10 mM) for another 24h for chemotherapy and with gamma radiation (3.5 kGy) using Cobalt 60 for radiotherapy. After 24 h, cell culture supernatants were collected from each well and stored at −20° C. till multiplex analysis. For NF-kB estimations, cell lysates were prepared. Levels of biomarkers were estimated using Magpix® multiplex machine. The cells treated with Amifostine (along with 5-FU or radiation) were considered as positive control (PC). Untreated cells (5-FU or radiation alone treated) were used as negative control (NC).
(§2) The percent modulation in each sample was determined as follows:
(§3) [{Concentration of biomarkers (pg/ml) in Control cells (5-FU or radiation alone treated)−Concentration of biomarkers (pg/ml) in SEQ ID NO: 2+5-FU or radiation treated cells)}/Concentration of biomarkers (pg/ml) in Control cells (5-FU or radiation alone treated)]*100

[2] = test system: MMP-3; test: Multiplex analysis, chemotherapy (5-FU), TR146
Method: as §1, §2, §3

[3] = test system: TNF-α; test: Multiplex analysis, chemotherapy (5-FU), TR146
Method: as §1, §2, §3

[4] = test system: IL-12/IL-23p40; test: Multiplex analysis, chemotherapy (5-FU), TR146
Method: as §1, §2, §3

[5] = test system: VEGF; test: Multiplex analysis, chemotherapy (5-FU), TR146
Method: as §1, §2, §3

[6] = test system: IL-1β; test: Multiplex analysis, chemotherapy (5-FU), TR146
Method: as §1, §2, §3

[7] = test system: CCL-2; test: Multiplex analysis, radiotherapy, TR146
Method: as §1, §2, §3

[8] = test system: RAGE; test: Multiplex analysis, radiotherapy, TR146
Method: as §1, §2, §3

[9] = test system: IL-6; test: Multiplex analysis, radiotherapy, TR146
Method: as §1, §2, §3

[10] = test system: MMP-3; test: Multiplex analysis, radiotherapy, TR146
Method: as §1, §2, §3

[11] = test system: TNF-α; test: Multiplex analysis, radiotherapy, TR146
Method: as §1, §2, §3

[12] = test system: VEGF; test: Multiplex analysis, radiotherapy, TR146
Method: as §1, §2, §3

[13] = test system: IL-1β; test: Multiplex analysis, radiotherapy, TR146
Method: as §1, §2, §3

[14] = test system: MMP-8; test: Multiplex analysis, radiotherapy, TR146
Method: as §1, §2, §3

[15] = test system: oral (buccal) mucosa cells (TR146); test: Sub(G0/G1) cell population (cell cycle) against 5-FU induced damage; conditions: for % Decrease in Apoptotic cells (with respect to control): Sub G0/G1
Method: (§4) To determine the effect of test item on cell cycle, oral buccal mucosal cells (TR146) were incubated overnight in 5% CO2 incubator at 37° C. for 24 h. […] After 24 h of treatment, cells were exposed to chemotherapy (5-FU 10 mM) for 24 h or radiotherapy (Gamma radiation (3.5 kGy) using Cobalt 60) for 2 h.
(§5) After incubation, cells were harvested by trypsinization and processed for Cell cycle assay. Accordingly, cells were harvested into prelabeled centrifuge tubes and centrifuged at 450 g for 5 min at room temperature (RT, low brake). The supernatants were removed carefully and discarded. 1 ml of 1× phosphate buffer saline (PBS) was added to the pellet and resuspended gently to make homogenous suspension. Cells were centrifuged at 450 g for 5 min, RT (low brake). The supernatant was carefully removed leaving behind approx. 100 μl of PBS. Cells were resuspended gently yet thoroughly in residual PBS. Ice-cold 70% ethanol (100 μl) was added drop-wise into cells in each tube while vortexing at low speed (fixation step). Cells stored at 4° C. for 24 h were centrifuged at 450 g for 5 min, RT (low brake). The supernatant was carefully removed without touching the pellet and discarded. 1 ml of 1×PBS was added into pellet and resuspended gently. Cells were incubated for 1 minute at RT. Cells were centrifuged at 450 g for 5 min, RT (low brake). The supernatant was removed carefully without touching the pellet, leaving behind approx. 20-50 μl of PBS. 200 μl of cell cycle reagent was added into each tube. Cells were resuspended gently and mixed. Cells were incubated for 30 min at RT in the dark. The stained samples were transferred into 96-well plates and acquired on flow cytometer (Guava technologies). Percentage of cells in Sub (G0/G1) phase were determined based on the concept that cell cycle reagent contains PI stain, which stains DNA of cells in different phases of cell cycle; Sub (G0/G1), G1, S, G2 and M. Cells in Sub (G0/G1) phase correspond to apoptotic cells. Percent inhibition in apoptotic cells is determined by the formula:
(§6) =[(% Sub(G0/G1) cells in 5-FU/radiation alone)−(% Sub(G0/G1) cells in TI+5-FU/radiation)/% Sub(G0/G1) cells in 5-FU/radiation alone]*100

[16] = test system: oral (buccal) mucosa cells (TR146); test: Sub(G0/G1) cell population (cell cycle) against radiation induced damage; conditions: for % Decrease in Apoptotic cells (with respect to control): Sub G0/G1
Method: as §4, §5, §6

[17] = 0.1 μg/ml + Radiation (3.5 kGy)

Structure (SMILES): NCCCNCCSP(=O)(O)O [Amifostine, reference compound]
- Percentage Inhibition IL-6 ([1]; 1 μg/ml + 5-FU (10 mM)): 7.2%
- Percentage Inhibition IL-6 ([1]; 10 μg/ml + 5-FU (10 mM)): 8.9%
- Percentage Inhibition IL-6 ([1]; 50 μg/ml + 5-FU (10 mM)): 35.2%
- Percentage Inhibition MMP-3 ([2]; 1 μg/ml + 5-FU (10 mM)): 22.6%
- Percentage Inhibition MMP-3 ([2]; 10 μg/ml + 5-FU (10 mM)): 23.4%
- Percentage Inhibition MMP-3 ([2]; 50 μg/ml + 5-FU (10 mM)): 26.8%
- Percentage Inhibition TNF-α ([3]; 1 μg/ml + 5-FU (10 mM)): 10%
- Percentage Inhibition TNF-α ([3]; 10 μg/ml + 5-FU (10 mM)): 13.3%
- Percentage Inhibition TNF-α ([3]; 50 μg/ml + 5-FU (10 mM)): 10%
- Percentage Inhibition IL-12/IL-23p40 ([4]; 1 μg/ml + 5-FU (10 mM)): 0%
- Percentage Inhibition IL-12/IL-23p40 ([4]; 10 μg/ml + 5-FU (10 mM)): −2.1%
- Percentage Inhibition IL-12/IL-23p40 ([4]; 50 μg/ml + 5-FU (10 mM)): 13.4%
- Percentage Inhibition VGEF ([5]; 1 μg/ml + 5-FU (10 mM)): 27.9%
- Percentage Inhibition VGEF ([5]; 10 μg/ml + 5-FU (10 mM)): 35.4%
- Percentage Inhibition VGEF ([5]; 50 μg/ml + 5-FU (10 mM)): 39.6%
- Percentage Inhibition IL-1β ([6]; 1 μg/ml + 5-FU (10 mM)): 14.2%
- Percentage Inhibition IL-1β ([6]; 10 μg/ml + 5-FU (10 mM)): 19.5%
- Percentage Inhibition IL-1β ([6]; 50 μg/ml + 5-FU (10 mM)): 46.6%
- Percentage Inhibition CCL-2 [7, 17]: 23.1%
- Percentage Inhibition CCL-2 ([7]; 10 μg/ml + Radiation (3.5 kGy)): 0.1%
- Percentage Inhibition RAGE [8, 17]: 45.1%
- Percentage Inhibition RAGE ([8]; 10 μg/ml + Radiation (3.5 kGy)): 40.3%
- Percentage Inhibition IL-6 [9, 17]: 14.2%
- Percentage Inhibition IL-6 ([9]; 10 μg/ml + Radiation (3.5 kGy)): 1.3%
- Percentage Inhibition MMP-3 [10, 17]: 51.9%
- Percentage Inhibition MMP-3 ([10]; 10 μg/ml + Radiation (3.5 kGy)): 47.4%
- Percentage Inhibition TNF-α [11, 17]: 49.3%
- Percentage Inhibition TNF-α ([11]; 10 μg/ml + Radiation (3.5 kGy)): 44.3%
- Percentage Inhibition VGEF [12, 17]: 10.3%
- Percentage Inhibition VGEF ([12]; 10 μg/ml + Radiation (3.5 kGy)): 7.2%
- Percentage Inhibition IL-1β [13, 17]: 10.7%
- Percentage Inhibition IL-1β ([13]; 10 μg/ml + Radiation (3.5 kGy)): 12.1%
- Percentage Inhibition MMP-8 [14, 17]: 3.6%
- Percentage Inhibition MMP-8 ([14]; 10 μg/ml + Radiation (3.5 kGy)): 13%
- % Apoptotic cells (Sub G0/G1) ([15]; 1 μg/ml + 5FU (10 mM)): 13%
- % Decrease in Apoptotic cells (with respect to control) ([15]; 1 μg/ml + 5FU (10 mM)): 58%
- % Apoptotic cells (Sub G0/G1) ([15]; 10 μg/ml + 5FU (10 mM)): 11.4%
- % Decrease in Apoptotic cells (with respect to control) ([15]; 10 μg/ml + 5FU (10 mM)): 63.2%
- % Apoptotic cells (Sub G0/G1) ([15]; 25 μg/ml + 5FU (10 mM)): 17%
- % Decrease in Apoptotic cells (with respect to control) ([15]; 25 μg/ml + 5FU (10 mM)): 45%
- % Apoptotic cells (Sub G0/G1) ([15]; 50 μg/ml + 5FU (10 mM)): 15.1%
- % Decrease in Apoptotic cells (with respect to control) ([15]; 50 μg/ml + 5FU (10 mM)): 50.9%
- % Apoptotic cells (Sub G0/G1) [16, 17]: 19.4%
- % Decrease in Apoptotic cells (with respect to control) [16, 17]: 45.1%
- % Apoptotic cells (Sub G0/G1) ([16]; 1 μg/ml + Radiation (3.5 kGy)): 21.8%
- % Decrease in Apoptotic cells (with respect to control) ([16]; 1 μg/ml + Radiation (3.5 kGy)): 38.2%
- % Apoptotic cells (Sub G0/G1) ([16]; 10 μg/ml + Radiation (3.5 kGy)): 12.9%
- % Decrease in Apoptotic cells (with respect to control) ([16]; 10 μg/ml + Radiation (3.5 kGy)): 63.5%

— patent US20250064890A1, “PROTEIN COMPOSITIONS FOR THE TREATMENT OF INFLAMMATORY DISEASES” (Unichem Laboratories Limited, priority 2021, published 2025)
